Row | melting point [°C] | Compound
1 | 86 to 88 | CC(C)C[C@H](OC(=O)N1CCCCCC1)C(=O)O
2 | 155 to 157 | CC(=O)Cc1cccc(S(N)(=O)=O)c1
3 | 201 to 203 | Cn1nnc(-c2ccc3c(c2)c(C2=CCN(CCN4CCNC4=O)CC2)cn3-c2ccc(F)cc2)n1
4 | 101 to 102 | O=C(CCl)Nc1ccccc1C1C=CCC1 (configuration not stated)
5 | 268 to 270 | CCCC(=O)c1c[nH]c(=O)[nH]1
6 | 103 to 105 | CCCCCCC1=CC(=C(Br)Br)NC1=O
7 | 170 to 172 | COCCOc1cc2c(Nc3cc(OC)c(Cl)cc3Cl)c(C#N)cnc2cc1F
8 | 146 to 148 | Cc1nc(N2CCNCC2)nc(N2CCSCC2)c1C#N
9 | 146 | CC(C)S(=O)(=O)c1cnc(Cl)c(Cl)c1
10 | 292 to 294 | O=c1[nH]c2ncc(-c3ccc(-c4cc[nH]n4)cc3)nc2n1CC1CCCCC1
11 | 119 | COc1cc2c(cc1-c1ccccc1)c1cc(-c3ccccc3)c(OC)cc1n2CCC(C)CCCC(C)C (configuration not stated)
12 | 150 to 152 | O=C(NCC1CCCCC1)NCC1CCCCC1
13 | 87 to 90 | Cc1cc(Oc2cc(Cl)ccc2[N+](=O)[O-])n[nH]1
14 | 146 to 147 | ClCc1c2ccccc2c(Cc2ccccc2)c2ccccc12
15 | 74 to 75 | Cn1cccc1C(=O)NCCCSc1ccncc1
16 | 175 to 176 | O=C(O)c1n[nH]c2ncccc12
17 | 125 to 126 | CCCn1c(Cl)cc2cnc(C)n2c1=O
18 | 89.5 to 90.5 | CN(C)C(=O)N(C)C(=O)Nc1ccccc1
19 | 265 to 266 | Cc1cc(-c2nc3cccnn3c2-c2ccnc(NC(=O)c3ccccc3C)c2)ccc1F
20 | 113 to 114 | O[C@@H](CNCCOc1ccc2oc(-c3ccon3)cc2c1)c1cccc(C(F)(F)F)c1

Row | melting point [°C] | Compound
21 | 98.5 to 99 | CSc1c2ccccc2c(C=O)c2ccccc12
22 | 170 | COC(=O)c1cc(C(=O)c2ncc3ccc(C(=O)OC(C)(C)C)cn23)ccc1[N+](=O)[O-]
23 | 54 to 55 | Brc1cnc(N2CCCC2)c(OCC2CCCC2)n1
24 | 180 | CCN1c2ncc(CC(F)c3ccncc3)cc2C(=O)N(C)c2ccc(Cl)nc21 (configuration not stated)
25 | 201 to 203 | Clc1nc(N2CCOCC2)nc(-n2cnc3ccccc32)n1
26 | 108 to 112 | CCOC(=O)c1ccc(Cl)nc1NCc1ccc(OC)c(Cl)c1
27 | 176 to 177 | C(C#Cc1cccc2ccccc12)#Cc1cccc2ccccc12
28 | 64 to 65.5 | CCCCCCCCCCCCCCCCCC(=O)Oc1cc(C)c(O)c(C(C)(C)C)c1
29 | 114 to 115 | Cc1cc(=O)c(-c2ccc(F)cc2)c(C)o1
30 | 185 | O=C(NCC12CC3CC(CC(C3)C1)C2)c1cccc([N+](=O)[O-])c1Cl
31 | 176 to 177 | Cc1nc2c(s1)-c1nc(Nc3ccc(N(C)C)cc3)ncc1CC2
32 | 167 to 169 | CC(C)CC(=O)Nc1cccc(-c2ccnc3c(-c4ccc5[nH]ccc5c4)cnn23)c1
33 | 182 to 184 | CS(=O)c1c2ccccc2c(C=O)c2ccccc12 (configuration not stated)
34 | 153 to 155 | Cc1cc(-c2ccc(-c3ccco3)cc2)n(-c2ccc(S(N)(=O)=O)cc2)c1
35 | 183 to 184 | O=C(NCCCCCCNC(=O)c1ccc(Oc2ccccc2)cc1)c1ccc(Oc2ccccc2)cc1
36 | 197 to 199 | CC1C2C(CON2C)CN1c1c(F)cc2c(=O)c(C(=O)O)cn(C3CC3)c2c1F (configuration not stated)
37 | 98 to 100 | CC(Cc1ccccc1)(NC(=O)OC1CCCCc2ccccc21)C(=O)NCCCCCCCCC(N)=O (configuration not stated)
38 | 156 | CCCN1CCC=C(c2cccc3[nH]cc(Br)c23)C1
39 | 122 | CN(C)Cc1cccc(Oc2ccc3c(c2)S(=O)(=O)NC2CCCN32)c1 (configuration not stated)

Row | Compound | melting point [°C]
40 | CN(C)C(=O)Nc1c(Cl)cc2c(c1Cl)C(c1ccccc1F)=NCC(=O)N2C | 145 to 147
41 | CCCN(CCC)CCc1ccc(O)c(NC(N)=O)c1 | 168 to 171
42 | CCc1cc2c(s1)-n1c(Cl)nnc1CN=C2c1ccccc1Cl | 133 to 135

From a melting point compilation (Tetko et al.; mined from patent text by program, amines drawn as free bases though some values may be those of a salt)
